# Reference: publication PMC11061149, “Protein mimetic 2D FAST rescues alpha synuclein aggregation mediated early and post disease Parkinson’s phenotypes” (Nature Communications, 2024)
# Values joined by “and” are separate entries in the source; they are usually repeats but may differ in a detail not shown here. Equal entries are not always repeated.
# What was measured:
# [1] = system: HEK cells expressing αSA53T-YFP; assay: MTT reduction assay of HEK cells treated with αS aggregated with or without ligand; assay type: cell-based, human
# Description: The aggregation of endogenous monomeric αS-A53T-YFP into fibers can be detected by the intracellular fluorescent puncta (Fig. 3a, + αS). A solution of 100 μM αS was aggregated in the absence and presence of NS132 at an equimolar ratio for four days. The resulting solutions of αS fibers (5 μM in monomeric αS, ±NS132) were introduced to HEK cells in the presence of Lipofectamine 3000 for 24 h. In contrast to the control (no fibers), we observed a significant number of fluorescent inclusions in the presence of αS fibers (Fig. 3a, white arrows, +αS), which was a consequence of the templating of endogenous monomeric αS-A53T-YFP by the exogenously added αS fibers. […] Moreover, we observed the colocalization of an adaptor protein, p62, in the aggresome of αS inclusions in HEK cells (Fig. 3b, +αS, red),[51]–[54]. […] We also quantified the inclusions (αS-A53T-YFP) using a ProteoStat dye-based high throughput 96-well plate reader-based assay recently developed in our lab[24]. […] The viability of HEK cells was measured using the (3-(4,5-dimethylthiazol-2-yl)-2,5-diphenyltetrazolium bromide) (MTT) reduction based assay.
# This assay was performed based on a previous protocol with slight modifications. […] The crystals were dissolved with gentle shaking of the plate, and subsequently, the absorbance was measured at 570 nm using an Infinite M200 Pro Plate Reader (Tecan, Grŏdig, Austria). […]
# UA196 worms = assay: ROS level in UA196 worms (H2DCFDA dye); assay type: in vivo, C. elegans
# Description: The worm strains were bleached at the same time and the eggs were incubated on PLATE 1. On day two, the worms were divided into two batches. One half of the worms were transferred (using M9 buffer) on PLATE 2 (without ligand) and the second half of the worms were transferred to PLATE 3 (with ligand). The concentration of the ligands was 50 µM as described in the main manuscript. On day four, the ligand (10–50 μM in M9 buffer with 0.1%-0.5% DMSO, v/v) was spotted again atop the PLATE 3 at 20 °C. The worms were incubated on PLATE 2 or PLATE 3 up to day eight at 20 °C in an incubator with constant humidity. On day eight, the worms were transferred into 1.7 mL microcentrifuge tubes using M9 buffer (1 mL) and washed with M9 buffer (1 mL and three times) by centrifugation for 2 min at 700xg and 20 °C. Subsequently, a total of 100 worms/well were transferred to a Costar 96-well black plate (Corning, Kennebunk, ME) containing 100 μL solution, including M9 buffer (89 μL), worm solution (10 μL and 100 worms), and 2’,7’-dichlorofluorescein diacetate (H2DCFDA) dye (1 μL, 50 μM, stock solution = 5 mM in cell culture grade DMSO, 99% pure). As a control, 99 μL of M9 buffer and 1 μL of 5 mM H2DCFDA reaction solution was placed in the wells. Subsequently, the Costar 96-well plate was gently shaken for 30 sec at 20 °C and the fluorescence intensity was measured (λex = 485 nm and λem = 530 nm) at multiple time points (0 to 120 min) using the Infinite M200 Pro Plate Reader (Tecan, Männedorf, Switzerland)[65],[89].
# For confocal imaging, the same UA196 worms (in the absence and presence of ligands) used for the quantification of ROS, were transferred from the 96-well plate into PLATE 2, air-dried into the sterile laminar flow hood. The worms ( ~ 10 worms) were transferred to a cover slide containing an anesthetic (40 mM sodium azide) and mounted on a glass microscope slide containing 2% agarose pads for the confocal imaging as described in the previous sections. This experiment consisted of three biological replicates and each biological replicate consisted of three technical replicates.
compound,measurement,setting,value
Cc1ccc(NC(=O)c2ccc(NC(=O)c3ccc([N+](=O)[O-])c(NCCc4c[nH]c5ccccc45)n3)c(NCC3CCCCC3)n2)c(OCC(=O)O)n1 [NS132],"relative viability of HEK cells, individual trials","[1]; HEK cells + Synuclein fibers aggregated with equimolar NS132, control = 1",0.8792 and 0.8235 and 0.899 and 0.8879 and 0.9679 and 0.8608 and 0.7821 and 0.8196 and 0.8279 and 0.7732 and 0.9011 and 0.8063 and 0.8583 and 0.8947 and 0.7357 and 0.8112
same,viability of HEK cells,[1]; αS aggregated solution with an equimolar ratio of NS132 (52% with αS alone),85%
same,"intracellular ROS level in UA196 worms, in words","UA196 worms; 50 µM ligand on day two and four, day eight",low
same,"ROS dye signal, Average","UA196 worms; UA196+NS132, Time 0 min",169.8
same,"ROS dye signal, Average","UA196 worms; UA196+NS132, Time 60 min",210.6
same,"ROS dye signal, Average","UA196 worms; UA196+NS132, Time 120 min",301.6
